Results published in patent US20050107289A1, “Anti-microbial peptides and compositions” (priority 2001, published 2005).
Non-standard residues stand in square brackets, D forms with d. Residues, ends and D or L forms follow the SMILES beside them.

How the values were obtained:
[1] = tested on: S. aureus (MRSA) ATCC 33591; assay type: cell-based, Staphylococcus aureus; conditions: for MRSA MIC / S. aureus (MRSA) MIC: ATCC 33591; for MRSA (in vitro activity): Table 9, media a: anti-microbial media-3 (AM-3)
Method in brief: (§1)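 Overnight bacterial cultures, diluted 4000 times to roughly 2.5×10^5 cfu/ml, are added to 2-fold peptide dilution series. Peptide series span approximately 400-2 μg/ml as prepared in DMSO/aqueous sucrose, before mixing with inoculum. Testing follows NCCLS M7-A4 broth dilution, chiefly the microdilution format.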

E. coli JM109(DE3) = assay type: cell-based, Escherichia coli; conditions: JM109
Experimental: (§2) The antimicrobial activity of the peptides was determined using a broth dilution assay essentially as descried in the guidelines of the National Committee for […] (NCCLS) [National Committee for Clinical Laboratory Standards. Methods for dilution antimicrobial susceptibility tests for bacteria that grow aerobically. Fourth edition. Approved Standard (1997). Document M7-A4. […] The microdilution method has the advantages of requiring less amount of peptide for each assay and the possibility of multiple simultaneous inoculations and was used in most studies. Several of the strains of bacteria tested are further described in Table 3.
(§3) Preparation of peptide solutions. Stock peptide solutions were prepared in 5% DMSO in aq. sucrose (9%). Determination of peptide concentrations was done by quantitative HPLC analysis using known concentrations of internal standards and/or by measuring UV absorption of tryptophane-containing peptide solutions in H2O (λ=280 εTrp: 5690). Serial 2-fold dilutions were made in the above DMSO/aq. sucrose (9%) mixture with concentrations ranging approximately 400-2 μg/ml and aliquots were dispensed in test tubes (100 μl) for the macrodilution test or in microtiter plates (20 μl) for the microdilution assays.
(§4) Inoculum preparation. Overnight cultures of different microorganisms grown in suitable media were diluted 4000 times to an approximate inoculum size of 2.5×10^5 cfu/ml.
(§5) Macrodilution method. Macrodilution methods were performed using procedures similar to those described in the National Committee for Clinical Laboratory Standards. Methods for dilution antimicrobial susceptibility tests for bacteria that grow aerobically. Fourth edition. Approved Standard (1997). Document M7-A4. (NCCLS,Villanova, Pa., 1997). Two ml aliquots of the above inoculum were dispensed to test tubes containing different peptide solutions.
(§6) Microdilution method. Microdilution methods were performed using procedures similar to those described in the National Committee for Clinical Laboratory Standards. Methods for dilution antimicrobial susceptibility tests for bacteria that grow aerobically. Fourth edition. Approved Standard (1997). Document M7-A4.

murine red blood cells = assay: Red blood cell hemolysis; assay type: cell-based, mouse; conditions: for Hemolysis HD50: red cells of murine
Method in brief: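 Washed murine erythrocytes at 5% in saline with 10% FBS were exposed to serial peptide dilutions for 30 min at 37° C. Supernatant absorbance at 560 nm was read, with saline as 0% and 1% Triton X-100 as 100% hemolysis.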

[2] = tested on: vancomycin-resistant Enterococus faecalis (VRE)(ATCC 51575); assay type: cell-based, Enterococcus faecalis; set-up: key to VRE (in vitro activity): peptide concentration in μg/ml (broth dilution assay); conditions: for VRE MIC: ATCC 51575; for VRE (in vitro activity): Table 9, media a: AM-3
Method in brief: as §1

[3] = tested on: Bacillus cereus ATCC 11778; assay type: cell-based
Experimental: as §2, §3, §4, §5, §6

[4] = tested on: Streptococcus pneumoniae (ATCC 6301); assay type: cell-based
Experimental: as §2, §3, §4, §5, §6

Row | SMILES | MRSA MIC [1] [µg/mL] | S. aureus (MRSA) MIC [1] [µg/mL] | E. coli MIC (E. coli JM109(DE3)) [µg/mL] | Hemolysis HD50 (murine red blood cells) [µg/mL] | VRE MIC [2] [µg/mL] | B. cerius MIC [3] [µg/mL] | S. pneum. MIC [4] [µg/mL] | MRSA (in vitro activity) [1] | RBC Hemolysis (HD50) (murine red blood cells) | VRE (in vitro activity) [2]
1 | CC(=O)N[C@H](CCCCN)C(=O)N[C@@H](CCCCN)C(=O)N[C@H](CCCCN)C(=O)N[C@@H](Cc1c[nH]c2ccccc12)C(=O)N[C@H](CC(C)C)C(=O)N[C@@H](Cc1c[nH]c2ccccc12)C(=O)N[C@H](CC(C)C)C(=O)N[C@H](Cc1c[nH]c2ccccc12)C(N)=O [SEQ ID NO:25, Ac-KKKWLWLW-CONH2] (Ac-[dK]K[dK]W[dL]W[dL][dW]-NH2) | 100 | 80 | 20 | 100 | 100 | 75 | 80 | – | – | –
2 | CC(C)C[C@H]1NC(=O)[C@H](Cc2c[nH]c3ccccc23)NC(=O)[C@@H](CCCNC(=N)N)NC(=O)[C@H](CCCNC(=N)N)NC(=O)[C@@H](CC(C)C)NC(=O)[C@H](Cc2c[nH]c3ccccc23)NC1=O [SEQ ID NO:115, [RRWLWL]] (cyclo(R[dR]W[dL]W[dL])) | 40 | – | 5 | 90 | 100 | 24 | 12 | 40 | 90 | 100
3 | CC(C)C[C@H]1NC(=O)[C@H](Cc2c[nH]c3ccccc23)NC(=O)[C@@H](CCCCN)NC(=O)[C@H](Cc2c[nH]cn2)NC(=O)[C@@H](CCCCN)NC(=O)[C@H](Cc2c[nH]c3ccccc23)NC(=O)[C@@H](CC(C)C)NC(=O)[C@H](Cc2c[nH]c3ccccc23)NC1=O [SEQ ID NO:22, KHKWLWLW] (cyclo([dK]H[dK]W[dL]W[dL]W)) | 10 | 10 | 80 | – | 10 | 8 | 8 | 10 | 30 | 10
4 | CC(=O)N[C@H](CC(C)C)C(=O)N[C@@H](Cc1c[nH]c2ccccc12)C(=O)N[C@H](CCCNC(=N)N)C(=O)N[C@@H](CCCNC(=N)N)C(=O)N[C@H](CCCCN)C(=O)N[C@@H](Cc1c[nH]c2ccccc12)C(=O)N[C@H](CC(C)C)C(=O)N[C@@H](Cc1c[nH]c2ccccc12)C(N)=O [SEQ ID NO:138, Ac-LWRRKWLW-NH2] (Ac-[dL]W[dR]R[dK]W[dL]W-NH2) | 15 | – | 7 | 100 | 100 | 20 | 20 | – | – | –
5 | CC(C)C[C@H]1NC(=O)[C@H](Cc2c[nH]c3ccccc23)NC(=O)[C@@H](Cc2c[nH]cn2)NC(=O)[C@H](CCCCN)NC(=O)[C@@H](CCC(=O)O)NC(=O)[C@H](Cc2c[nH]c3ccccc23)NC(=O)[C@@H](CC(C)C)NC(=O)[C@H](Cc2c[nH]c3ccccc23)NC1=O [SEQ ID NO:16, cyclo-(D-Glu-Lys-D-His-Trp-D-Leu-Trp-D-Leu-Trp)] (cyclo(K[dH]W[dL]W[dL]W[dE])) | 100 | 100 | 100 | – | 100 | 85 | 50 | 100 | >100 | 100
6 | CC(C)C[C@H]1NC(=O)[C@H](Cc2c[nH]c3ccccc23)NC(=O)[C@@H](CC(C)C)NC(=O)[C@H](Cc2c[nH]c3ccccc23)NC(=O)[C@@H](CC(=O)O)NC(=O)CNC(=O)[C@@H](CCCNC(=N)N)NC(=O)[C@H](Cc2c[nH]c3ccccc23)NC1=O [SEQ ID NO:7, RGDWLWLW] (cyclo([dR]G[dD]W[dL]W[dL]W)) | 100 | 100 | 100 | – | 100 | > 280 | 70 | 100 | 100 | 100
7 | CC(C)C[C@@H](NC(=O)[C@H](Cc1c[nH]c2ccccc12)NC(=O)[C@@H](CC(C)C)NC(=O)[C@H](Cc1c[nH]c2ccccc12)NC(=O)[C@@H](CCCCN)NC(=O)[C@H](CCCNC(=N)N)NC(=O)[C@H](N)CCCNC(=N)N)C(=O)N[C@@H](Cc1c[nH]c2ccccc12)C(N)=O [SEQ ID NO:135, H-RRKWLWLW-NH2] (H-[dR]R[dK]W[dL]W[dL]W-NH2) | 20 | – | 4 | 100 | 100 | 19 | 40 | – | – | –
8 | CC(C)C[C@H]1NC(=O)[C@H](Cc2c[nH]c3ccccc23)NC(=O)[C@@H](CO)NC(=O)[C@H](CCCCN)NC(=O)[C@@H](CO)NC(=O)[C@H](Cc2c[nH]c3ccccc23)NC(=O)[C@@H](CC(C)C)NC(=O)[C@H](Cc2c[nH]c3ccccc23)NC1=O [SEQ ID NO:5, cyclo-(D-Ser-Lys-D-Ser-Trp-D-Leu-Trp-D-Leu-Trp)] (cyclo(K[dS]W[dL]W[dL]W[dS])) | 20 | 10 | 100 | – | 20 | > 30 | 30 | 20 | 30 | 20
9 | CC(C)C[C@H]1NC(=O)[C@H](Cc2c[nH]c3ccccc23)NC(=O)[C@@H](CCCCN)NC(=O)[C@H](CCCNC(=N)N)NC(=O)[C@@H](CCCNC(=N)N)NC(=O)[C@H](Cc2c[nH]c3ccccc23)NC(=O)[C@@H](CC(C)C)NC(=O)[C@H](CO)NC1=O [SEQ ID NO:112, [RRKWLSLW]] (cyclo([dR]R[dK]W[dL]S[dL]W)) | 12 | – | 12 | 100 | 50 | 13 | 12 | 12 | 100 | 50
10 | CC(C)C[C@H]1NC(=O)[C@H](Cc2c[nH]c3ccccc23)NC(=O)[C@@H](CCCCN)NC(=O)[C@H](CCCNC(=N)N)NC(=O)[C@@H](CCCNC(=N)N)NC(=O)[C@H](Cc2c[nH]c3ccccc23)NC(=O)[C@@H](CC(C)C)NC(=O)[C@H](Cc2c[nH]cn2)NC1=O [SEQ ID NO:110, [RRKWLHLW]] (cyclo([dR]R[dK]W[dL]H[dL]W)) | 25 | – | 15 | 100 | 40 | 20 | 20 | 25 | 100 | 40
